Data from patent US5681964A, “Permeable, non-irritating prodrugs of nonsteroidal and steroidal agents” (University of Kentucky Research Foundation, priority 1994, dated 1997).
Values after ≈ are worked out from the molar mass of the structure shown. Read-outs that look alike come from different tables or passages of the source.

Legend:
[1] = t1/2 in serum (Table 1); type: in vitro ADME
[2] = t1/2 in PB (7.4) (Table 1); type: physicochemical; conditions: for half-life: pH 7.4; for t1/2 in PB (7.4): result in words
[3] = Solubility (Table 1); type: physicochemical
[4] = test system: rabbit eye; test: irritancy in the rabbit eye, daily drops for seven days; type: in vivo; conditions: for degree of irritation to the cornea as compared to flurbiprofen in the acid form: 25 microliters (monoester, flurbiprofen) or 30 microliters (diester) into each eye daily, seven days, slit lamp, electron microscopy; for conversion into the flurbiprofen acid form during transport into the eye: aqueous humor and vitreous humor after seven days
Method: Another experiment was performed with tetraethylene glycol flurbiprofenate and tetraethylene glycol bis-flurbiprofenate to determine the irritancy of these prodrugs in the rabbit eye.
25 microliters of tetraethylene flurbiprofenate were dropped into each eye of two rabbits each day for seven days. Also, 30 microliters of tetraethylene glycol bis-flurbiprofenate was dropped into each eye of two rabbits each day for 7 days. A control using 25 microliters of flurbiprofen was dropped into each eye of two rabbits for seven days. Each morning the rabbit's eyes were examined by slit lamp for evidence of cornea damage and irritation. After seven days the animals were sacrificed and samples of the aqueous humor and vitreous humor were obtained for analysis of flurbiprofen and a flurbiprofen ester. The eyes were also examined by electron microscopy. […] The test was repeated using 10 microliters of each of the substances each day for seven days with similar results.

[5] = animal and human experiments; cited from earlier work
[6] = test system: Salmonella; conditions: Ames type assays and chronic exposure studies; cited from earlier work
[7] = test system: skin; conditions: cited from earlier work
[8] = test system: cornea epithelium; test: differential scanning calorimetry of cornea epithelium of treated enucleated albino rabbit eyes
Method: The reduced cornea damage by polyethylene glycol flurbiprofenate and bis-flurbiprofenate prodrugs in albino rabbit eyes was assessed by differential scanning calorimetry. Tests were conducted to investigate the effects of flurbiprofen and the polyethylene glycol flurbiprofen ester and the diester prodrugs on the cornea epithelium. […] The effects of these drugs on the molecular structure of the cornea epithelium were assessed by differential scanning calorimetry. Fresh enucleated albino rabbit eyes were treated in solutions and also in suspensions of flurbiprofen and also in solutions and suspensions of the polyethylene glycol esters and diesters of flurbiprofen in isotonic glutathione buffered ringer solution for 10 minutes. The cornea epithelium was then scraped from the corneas and immediately analyzed by differential scanning calorimetry over the range of 40°-110° C.
Whenever a normal rabbit's cornea epithelium was analyzed a large endothermic transition at 64°±2° C. was observed. It has been established by previous work that this particular peak which was observed was due to a lipid.backslash.protein phase transition.

[9] = test system: cornea; conditions: in vitro; cited from earlier work
[10] = man; cited from earlier work
[11] = applied for treatment of inflammation; cited from earlier work
[12] = PB (7.4), read-out: t1/2 in PB (7.4) (converted)

| Compound | half-life ([1]; read-out: t1/2 in serum) | solubility ([3]; read-out: Solubility) | t1/2 in PB (7.4) ([2]; PB (7.4)) | other results |
| --- | --- | --- | --- | --- |
| CC(C(=O)OCCOCCOCCO)c1ccc(-c2ccccc2)c(F)c1 (stereo not drawn) [Compound G-60] | 0.75 h | 135 ± 4 µg/mL (≈ 359 µM) |  | half-life [2, 12]: 175 h |
| COc1ccc2cc(C(C)C(=O)OCCOCCOCCOCCO)ccc2c1 (stereo not drawn) [Compound G-167, monoester of naproxen and tetraethylene glycol] | 0.0833 h | 1120 ± 31 µg/mL (≈ 2740 µM) |  | half-life [2, 12]: 300 h |
| COc1ccc2cc(C(C)C(=O)OCCOCCOCCO)ccc2c1 (stereo not drawn) [Compound G-192.1] | 0.217 h | 943 ± 25 µg/mL (≈ 2600 µM) |  | half-life [2, 12]: 230 h |
| COc1ccc2cc(C(C)C(=O)OCCOCCOCCOC(=O)C(C)c3ccc4cc(OC)ccc4c3)ccc2c1 (stereo not drawn) [Compound G-192.2] | 0.833 h | < 0.1 µg/mL | low solubility |  |
| COc1ccc2cc(C(C)C(=O)OCCOCCO)ccc2c1 (stereo not drawn) [Compound G-195.1] | 0.967 h | 553 ± 27 µg/mL (≈ 1740 µM) |  | half-life [2, 12]: 80 h |
| COc1ccc2cc(C(C)C(=O)OCCOCCOC(=O)C(C)c3ccc4cc(OC)ccc4c3)ccc2c1 (stereo not drawn) [Compound G-195.2, diester of naproxen and diethylene glycol] | 1.25 h | < 0.1 µg/mL | low solubility |  |
| CC1(C)O[C@@H]2C[C@H]3[C@@H]4CCC5=CC(=O)C=C[C@]5(C)[C@@]4(F)[C@@H](O)C[C@]3(C)[C@]2(C(=O)COC(=O)OCCOCCOCCOCCO)O1 [Compound G-196.1, carbonate linked ester of triamcinolone acetonide and tetraethylene glycol] |  |  |  | half-life [1]: 3.8 h; half-life ([2]; pb): 136 h; solubility [3]: 391 ± 49 µg/mL (≈ 597 µM) |
| CC1(C)O[C@@H]2C[C@H]3[C@@H]4CCC5=CC(=O)C=C[C@]5(C)[C@@]4(F)[C@@H](O)C[C@]3(C)[C@]2(C(=O)COC(=O)OCCOCCO)O1 [Compound G-197.1, carbonate linked ester of triamcinolone acetonide and diethylene glycol] |  |  |  | half-life [1]: 0.167 h; half-life ([2]; pb): 101 h; solubility [3]: 74 ± 3 µg/mL (≈ 131 µM) |
| CC(C(=O)OCCOCCOCCOCCO)c1ccc(-c2ccccc2)c(F)c1 (stereo not drawn) [Compound G-202.1, tetraethylene glycol 2-(2-fluoro-4-biphenylyl)propionate] | 0.533 h | 228 ± 5 µg/mL (≈ 542 µM) |  | half-life [2, 12]: 144 h; degree of irritation to the cornea as compared to flurbiprofen in the acid form [4]: significantly reduced; conversion into the flurbiprofen acid form during transport into the eye [4]: converted into the flurbiprofen acid form during transport into the eye |
| CC(C(=O)OCCOCCOCCOCCOC(=O)C(C)c1ccc(-c2ccccc2)c(F)c1)c1ccc(-c2ccccc2)c(F)c1 (stereo not drawn) [Compound G-202.2, tetraethylene glycol bis-2-(2-fluoro-4-biphenylyl)propionate] | 3.67 h | < 0.1 µg/mL | low solubility | degree of irritation to the cornea as compared to flurbiprofen in the acid form [4]: significantly reduced; conversion into the flurbiprofen acid form during transport into the eye [4]: converted into the flurbiprofen acid form during transport into the eye |
| COc1ccc2cc(C(C)C(=O)OCCOCCOCCOCCOC(=O)C(C)c3ccc4cc(OC)ccc4c3)ccc2c1 (stereo not drawn) [Compound G-219.2, diester of naproxen and tetraethylene glycol] | 0.433 h | < 0.1 µg/mL | very slow |  |
| COc1ccc2cc(C(C)C(=O)OCCOCCOCCOCCOCCOCCO)ccc2c1 (stereo not drawn) [Compound G-220.1] | 0.0617 h | 6430 ± 617 µg/mL (≈ 13000 µM) | several days |  |
| COc1ccc2cc(C(C)C(=O)OCCOCCOCCOCCOCCOCCOC(=O)C(C)c3ccc4cc(OC)ccc4c3)ccc2c1 (stereo not drawn) [Compound G-220.2, diester of naproxen and hexaethylene glycol] | 0.833 h | < 0.1 µg/mL | very slow |  |
| CN1CCCC1=O [N-methyl-2-pyrrolidone] |  |  |  | irritation or sensitization potential [5]: very little irritation or sensitization potential; toxicity [6]: have not revealed any significant toxicity; penetration enhancement [7]: effective penetration enhancer |
| CC(C(=O)OCCOCCOCCOCCOCCOCCOC(=O)C(C)c1ccc(-c2ccccc2)c(F)c1)c1ccc(-c2ccccc2)c(F)c1 (stereo not drawn) [TC-242.1, hexaethylene glycol bis-flurbiprofenate] | 2.78 h | < 0.1 µg/mL | very slow |  |
| CC(C(=O)OCCOCCOCCOCCOCCOCCO)c1ccc(-c2ccccc2)c(F)c1 (stereo not drawn) [TC-242.2, hexaethylene glycol flurbiprofenate] | 0.367 h | 445 ± 34 µg/mL (≈ 875 µM) | several days |  |
| CC(C(=O)O)c1ccc(-c2ccccc2)c(F)c1 (stereo not drawn) [flurbiprofen, 2(2-fluoro-4-biphenylyl)propionic acid] |  |  |  | normal protein/lipid structure of cornea epithelium [8]: substantially total breakdown of the normal protein/lipid structure; cornea barrier function [9]: impairs cornea barrier function in vitro; irritation [10]: irritating in man; local irritation [11]: produces local irritation |
| benzalkonium chloride |  |  |  | intensity of the phase transition peak of cornea epithelium by DSC ([8]; compounds known to damage the cornea): greatly reduce the intensity of this observed peak |
